Assays:
[1] = Measurement of water activity of salt solutions; assay type: physicochemical; conditions: different concentrations of salt in Elga-H2O; FIG. 8
Description: Water activity is measured as follows. The water activity meter is from Aqua Lab, Model Series 3 TE, […]. (U.S. Pat. No. 5,816,704). A specimen, a solution with different additions of different salts in Elga-H2O or synthetic urine, test liquid 2. was placed in a plastic cup. The quantity is not critical, but it is important that the bottom surface of the plastic cup is covered. The specimen is moved into the test chamber, which is closed, and the measurement commences. When the test value is stable, a green light flashes and the water activity can be read off digitally. The salts that were tested were: NaCl, KCl, NH4Cl, KC2H3O2 (K acetate), Na C2H3O2 (Na acetate).
The water activity was measured in Elga-H2O (USF Elga, distilled water) and synthetic urine, test liquid 2.
The water activity was measured according to method 4, but with different concentrations of salt in Elga-H2O.

Proteus mirabilis = conditions: 29% by weight of NaCl (% dry); after 6 and 8 hours; FIG. 5
Description: (§1) Absorbent test specimens were punched out from an absorbent core produced in a test plant. A standard method for mat-forming of a core was used during production of the core in the test plant. The absorbent test specimen included a homogeneous mixture of fluff pulp, 0.72 g Weyerhauser pulp (NB 416) and 0.48 g of superabsorbent polymer (SAP) (Degussa SXM9135). The absorbent core, was compressed to a bulk of around 8-10 cm^3/g. The size of the punched-out test items was 5 cm in diameter, the weight was about 1.2 g.
(§2) Absorbent test specimens were produced according to method 1.
as §2

E. coli = conditions: FIG. 4
Description: as §1
(§3) 16 ml (corresponding to a maximum absorption capacity of a test specimen according to method 1) of test liquid 1 containing the bacteria were added to a test specimen placed in plastic tubs, and a lid was fitted on the tubs. The tubs were turned upside down and incubated in a warm cabinet at 35° C. After incubation for 0, 6 and 12 hours, the test samples were placed in a plastic bag with peptone water and the content was homogenized (agitated and worked up) in a stomacker for 3 minutes. The homogenate was diluted in dilution tubes with peptone water and a microbiological culture was spread on agar plates. Slanetz Bartley agar was used for E. faecalis, and Drigalski agar for E. coli and P. mirabilis. The specimens were incubated at 35° C. for 1-2 days before the colonies were counted and the log CFU/ml calculated. Control tests were also carried out with absorbent cores without NaCl.
(§4) Bacteria were cultured in nutrient broth and diluted to the desired concentration of about Log 3.3 in test liquid 1 (method 4). Absorbent test specimens were produced according to method 1. 29 (high), 22 (medium) and 12 (low) % by weight NaCl (% dry) were added to the core, corresponding to 3 (high), 2 (medium) and 1 (low) % by weight (% wet) in the wet product. This proportion also applies to the other examples. The bacterial growth was measured according to method 3.

E. faecalis = conditions: FIG. 4
Description: as §1, §3, §4

P. mirabilis = conditions: FIG. 4
Description: as §1, §3, §4

[2] = 3% added salt (% wet), NaCl high, after 12 hours, 35° C, test liquid 1
[3] = 29, 22 and 12 % by weight NaCl (% dry), after 6 and 12 hours

SMILES: CC(=O)[O-].[Na+] [Na acetate]
- water activity as the concentrations of salt increase [1]: drops

SMILES: [Cl-].[Na+] [NaCl]
- development of NH3, ranking among specimens (Proteus mirabilis): lowest
- growth of E. coli (E. coli; [2]): < 5.5 log CFU/ml
- growth of E. coli compared with the control tests (E. coli; [3]): lower
- growth of E. faecalis (E. faecalis; [2]): < 5.5 log CFU/ml
- growth of E. faecalis compared with the control tests (E. faecalis; [3]): lower
- growth of P. mirabilis (P. mirabilis; [2]): < 5.5 log CFU/ml
- growth of P. mirabilis compared with the control tests (P. mirabilis; [3]): lower
- water activity as the concentrations of salt increase [1]: drops

SMILES: Cl.N [NH4Cl]
- water activity as the concentrations of salt increase [1]: drops

From patent publication US20100063466A1, “ABSORBENT ARTICLE” (SCA Hygiene Products AB, priority 2006, published 2010)
